# Data from patent publication US5468875A, “1-azabicycloheptane derivatives” (American Home Products Corporation, priority 1994, dated 1995).
# Read-outs that look alike come from different tables or passages of the source.
# Columns and labels:
# m1 receptor = m1 receptor (Homo sapiens, UniProt P11229); assay: biochemical; conditions: ml 3H QNB Binding in CHO cells Ki, 0.23 nM [3H]QNB, 37° C., one hour
# [1] = target: T1, M1 acetylcholine receptors (Homo sapiens, UniProt P11229); assay: stimulation of phosphoinositide (PI) hydrolysis in CHO cells transfected with M1 receptor cDNA; assay type: cell-based; conditions: for Emax: CHO, 1 h; for functional m1 muscarinic agonism: exo versus endo, in words; for EC50: m1 receptors in CHO cells, read-out: % PI Hydrolysis ml receptors in CHO cells ED50
# T1 sequence (P11229 1-460): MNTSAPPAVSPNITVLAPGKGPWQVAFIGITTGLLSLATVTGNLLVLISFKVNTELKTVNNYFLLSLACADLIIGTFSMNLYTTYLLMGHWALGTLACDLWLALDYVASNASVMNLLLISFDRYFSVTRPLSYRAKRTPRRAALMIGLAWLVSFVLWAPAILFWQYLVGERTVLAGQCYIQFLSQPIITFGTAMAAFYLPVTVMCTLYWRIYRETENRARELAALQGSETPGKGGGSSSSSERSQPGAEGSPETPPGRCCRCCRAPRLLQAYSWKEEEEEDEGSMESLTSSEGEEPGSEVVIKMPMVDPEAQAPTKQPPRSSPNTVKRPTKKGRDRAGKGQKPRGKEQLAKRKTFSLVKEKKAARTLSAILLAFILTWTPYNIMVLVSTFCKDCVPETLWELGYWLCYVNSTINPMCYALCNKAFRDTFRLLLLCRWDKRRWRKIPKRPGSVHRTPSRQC
# [2] = tested on: scopolamine disrupted rat performance; assay: eight arm radial maze test, scopolamine disrupted performance; assay type: in vivo, Sprague-Dawley male rats; conditions: ip, rats, test compound i.p., scopolamine HBr 0.3 mg/kg, s.c., read-out: minimum effective dose (MED), reversal of scopolamine disrupted rat performance
# Method: The compound of Example 3 was also tested in the eight arm radial maze test procedure in which Sprague-Dawley male rats at 85% of their free feeding weight are trained to obtain two food pellets from food cups placed at the ends of four of the eight arms radiating from a circular central area of the maze, in a five minute period. After training to a level of error (rerum to a previously entered arm is error) equal to or less than 2, the rats performance is disrupted with scopolamine HBr (0.3 mg/kg, s.c.) and test compound dosage (i.p.). The number of errors are then determined and compared with control receiving scopolamine alone.
# [3] = tested on: scopolamine treated animals; assay: reversal of scopolamine-induced hyperactivity, swim tank test; assay type: in vivo, Male CFW mice; conditions: Mus musculus, ip, 5 min, mice, scopolamine.HBr 0.3 mg/kg i.p., swim distance, read-out: minimum effective dose (MED), reversal of hyperactivity of scopolamine treated animals
# Method: The compound of Example 3, representative of the other compounds of this invention, was also tested in accordance with the procedure of Symons et al, Soc. Neuroscience Abstracts 12:2, 897 (1986) in which Male CFW mice, 25 to 35 grams in weight are given the test compound in suitable vehicle plus 0.3 mg/kg scopolamine.HBr in suitable vehicle, i.p.(3 groups of 12 animals each) or vehicle alone (1 group of 12 animals ) or vehicle plus scopolamine.HBr (1 group of 12 animals). The mice are placed in a swim tank, individually, containing 10 cm H2 O for a period of 5 minutes and the distance each animal swims is recorded.
# [4] = cited from earlier work
# [5] = tested on: patients with mild to moderate Alzheimer's Disease; conditions: cited from earlier work; for improvement in memory: patients with mild to moderate Alzheimer's Disease
# muscarinic = conditions: cited from earlier work
# m1 receptors = conditions: cited from earlier work
# [6] = read-out: % PI Hydrolysis ml receptors in CHO cells 30x Ki (μM) carb=100%
# [7] = read-out: % PI Hydrolysis ml receptors in CHO cells maximum % carbachol=100%
compound,measurement,setting,value
"CNC(=O)O[C@H]1CN2CC[C@H]1C2 (relative stereo) [Example 1, (exo)-Methylcarbamic acid 1-aza-bicyclo[2.2.1]hept-3-yl ester]",Ki,m1 receptor,29.3 µM
same,Emax,[1]; [6],61.9%
same,Emax,[1]; [7],54.9%
same,functional m1 muscarinic agonism,[1],enhanced muscarinic agonism
same,EC50,[1],6.9 µM
"CNC(=S)O[C@H]1CN2CC[C@H]1C2 (relative stereo) [Example 4, (exo)-Methylthiocarbamic acid 1-aza-bicyclo[2.2.1]hept-3-yl ester]",Ki,m1 receptor,3.72 µM
same,Emax,[1]; [6],21.8%
"O=C(NCC(F)(F)F)O[C@H]1CN2CC[C@H]1C2 (relative stereo) [Example 9, (exo)-(2.2.2-Trifluoroethyl)carbamic acid 1-aza-bicyclo[2.2.1]hept-3-yl ester]",Ki,m1 receptor,14.5 µM
"O=C(NC1CC1)O[C@H]1CN2CC[C@H]1C2 (relative stereo) [Example 11, (exo)-Cyclopropylcarbamic acid 1-aza-bicyclo[2.2.1]hept-3-yl ester]",Ki,m1 receptor,1.81 µM
same,Emax,[1]; [6],10.1%
CNC(=O)O[C@H]1CN2CC[C@@H]1C2 (relative stereo) [endo azacycloheptane analog],functional m1 muscarinic agonism,[1],not
"CNC(=O)O[C@H]1CN2CC[C@H]1C2 (single isomer, unassigned) [Example 2, (+)-(exo)-Methylcarbamic acid 1-aza-bicyclo[2.2.1]hept-3-yl ester]",Ki,m1 receptor,41.8 µM
same,minimal effective dose,[2],1 mg/kg
"CNC(=O)O[C@H]1CN2CC[C@H]1C2 (single isomer, unassigned) [Example 3, (-)-(exo)-Methylcarbamic acid 1-aza-bicyclo[2.2.1]hept-3-yl ester]",Ki,m1 receptor,26.6 µM
same,Emax,[1]; [6],71.9%
same,Emax,[1]; [7],68.7%
same,EC50,[1],9.8 µM
same,minimal effective dose,[3],30 mg/kg
"CNC(=S)O[C@H]1CN2CC[C@H]1C2 (single isomer, unassigned) [Example 5, (+)-(exo)-Methylthiocarbamic acid 1-aza-bicyclo[2.2.1]hept-3-yl ester]",Ki,m1 receptor,6.93 µM
same,Emax,[1]; [7],51.5%
same,EC50,[1],2.9 µM
"CNC(=S)O[C@H]1CN2CC[C@H]1C2 (single isomer, unassigned) [Example 6, (-)-(exo)-Methylthiocarbamic acid 1-aza-bicyclo[2.2.1]hept-3-yl ester]",Ki,m1 receptor,14.5 µM
same,% PI Hydrolysis ml receptors in CHO cells maximum % carbachol=100%,"[1]; cho cells, 60 min",69.7%
same,EC50,[1],6.3 µM
"CCNC(=O)O[C@H]1CN2CC[C@H]1C2 (single isomer, unassigned) [Example 7, (+)-(exo)-Ethylcarbamic acid 1-aza-bicyclo[2.2.1]hept-3-yl ester]",Ki,m1 receptor,14.3 µM
"CCNC(=O)O[C@H]1CN2CC[C@H]1C2 (single isomer, unassigned) [Example 8, (-)-(exo)-Ethylcarbamic acid 1-aza-bicyclo[2.2.1]hept-3-yl ester]",Ki,m1 receptor,21.5 µM
same,Emax,[1]; [6],58.8%
"O=C(NCC(F)(F)F)O[C@H]1CN2CC[C@H]1C2 (single isomer, unassigned) [Example 10, (-)-(exo)-(2.2.2-Trifluoroethyl)carbamic acid 1-aza-bicyclo[2.2.1]hept-3-ylester]",Ki,m1 receptor,17.6 µM
"O=C(NC1CC1)O[C@H]1CN2CC[C@H]1C2 (single isomer, unassigned) [Example 12]",Ki,m1 receptor,20.5 µM
"C#CCNC(=O)O[C@H]1CN2CC[C@H]1C2 (single isomer, unassigned) [Example 13, (-)-(exo)-Propargylcarbamic acid 1-aza-bicyclo[2.2.1]hept-3-yl ester]",Ki,m1 receptor,14.5 µM
same,Emax,[1]; [6],39.4%
"COC(=O)C1=CCCN(C)C1 [Arecoline, arecoline]",half-life,[4],short half-life
same,improvement in memory,[5],demonstrated memory improvement in patients with mild to moderate Alzheimer's Disease
CNC(=O)OC1CN2CCCC1C2 (stereo not drawn) [exo-1-azabicyclo[3.2.1oct-6-yl-N-methylcarbamate],muscarinic activity,muscarinic,having muscarinic activity
"CN(C)C(=O)OC1CC2CCCN(C2)C1 (stereo not drawn) [exo-1-azabicyclo[3.3.1]non-3-yl-N,N-dimethylcarbamate]",muscarinic activity,muscarinic,having muscarinic activity
CNC(=O)OC1CC2CCCN(C2)C1 (stereo not drawn) [exo-1-azabicyclo[3.3.1]non-3-yl-N-methylcarbamate],muscarinic activity,muscarinic,having muscarinic activity
C[C@@H]1O[C@H](C[N+](C)(C)C)C[C@H]1O [muscarine],activation of m1 receptors,m1 receptors,able to fully activate m1 receptors
Nc1c2c(nc3ccccc13)CCCC2 [tactine],adverse side effects,[5]; higher doses,adverse side effects especially at the higher doses where it is most effective
same,improvement in memory,[5],improvement in memory can be shown in patients with mild to moderate Alzheimer's Disease
